We go through 15 molecules from patent publication US20030125234A1, “Alteration of protein stability” (priority 2001, published 2003).

Residues, ends and D or L forms follow the SMILES beside them.

Holding throughout (assay type): biochemical
In one assay the target is T1, Bovine insulin (Bos taurus, UniProt P01317).
T1 construct: purchased Sigma, St. Louis, Mo., USA
Description: Insulin aggregation (turbidity at 360 nm) induced by DTT. The following applies: Insulin 0.25 mg/mL, 25° C., DTT; compound 100×; standard deviation in parenthesis. An outline of the steps: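 Reductive aggregation of insulin was tracked as optical density at 360 nm over 1 hour at 25° C. Insulin at 0.25 mg/mL in pH 7.0 phosphate saline was stirred with the test compound in 1 cm thermostatted cuvettes, read every 30 seconds, or in 96-well plates. DTT […] was then added. Compound-free insulin served as the reference.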

The target in assay [1] is T2, porcine heart citrate synthase (CS) (Sus scrofa, UniProt P00889).
T2 construct: porcine heart citrate synthase (CS); from tissue; host or cells: porcine heart
T2 sequence (P00889 28-464): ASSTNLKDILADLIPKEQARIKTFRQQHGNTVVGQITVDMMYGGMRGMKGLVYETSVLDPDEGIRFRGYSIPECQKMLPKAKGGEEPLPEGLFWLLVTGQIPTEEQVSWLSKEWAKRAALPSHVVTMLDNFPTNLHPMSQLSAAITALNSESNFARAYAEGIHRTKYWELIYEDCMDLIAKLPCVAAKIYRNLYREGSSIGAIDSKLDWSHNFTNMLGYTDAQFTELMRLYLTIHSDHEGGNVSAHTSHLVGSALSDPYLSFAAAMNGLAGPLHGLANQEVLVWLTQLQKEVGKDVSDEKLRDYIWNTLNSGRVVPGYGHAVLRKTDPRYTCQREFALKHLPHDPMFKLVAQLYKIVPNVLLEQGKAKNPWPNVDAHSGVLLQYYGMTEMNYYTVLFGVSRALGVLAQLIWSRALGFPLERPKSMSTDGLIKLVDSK
As to the kind of experiment: Citrate synthase thermal aggregation (turbidity at 360 nm). The following applies: for inhibition index: CS 96 μg/mL, 45° C., standard deviation in parenthesis. The procedure, abridged:
(§1)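 Additive effects on thermal aggregation were read from the steepest slope of OD360-versus-time curves recorded over 1 h and referenced to additive-free protein. FGF-1 (50 μg/mL, phosphate/NaCl pH 7.2) was stressed at 50° C; citrate synthase (96 μg/mL, HEPES/KCl pH 7.8) at 45° C.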

The target of assay [2] is T3, porcine somatotropin (pST) (Sus scrofa, UniProt P01248).
T3 construct: purchased Pfizer, Inc., Groton, Conn., USA (provided, not bought)
T3 sequence (P01248 27-216): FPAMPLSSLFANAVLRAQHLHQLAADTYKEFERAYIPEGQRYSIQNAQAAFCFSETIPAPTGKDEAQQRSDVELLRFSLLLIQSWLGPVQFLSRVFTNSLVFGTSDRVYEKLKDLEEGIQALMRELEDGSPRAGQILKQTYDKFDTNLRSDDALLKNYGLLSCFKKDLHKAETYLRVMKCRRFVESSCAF
As to the kind of experiment: Porcine somatotropin aggregation (turbidity at 360 nm) with PEG 8000. The following applies: pST 1.27 mg/mL, 60° C., standard deviation in parenthesis. The procedure, abridged: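 Aggregation is scored as optical density at 360 nm over 1 h relative to untreated protein. Porcine somatotropin (1.27 mg/mL) is heated to 60° C in PEG 8000 (20 mg/mL); ADH (1 mg/mL) is oxidized with 7.76E-5 M Cu(OP)2 at 37° C; lysozyme and HLF (0.4 mg/mL) are reduced with 1.27E-4 M DTT at 25° C and 43° C.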

The target in assay [3] is human acidic fibroblast growth factor (FGF-1) (Homo sapiens, UniProt P05230). As to the kind of experiment: FGF-1 thermal aggregation (turbidity at 360 nm). The following applies: for inhibition index: FGF-1 50 μg/mL, 50° C., standard deviation in parenthesis. An outline of the steps:
as §1

human acidic fibroblast growth factor (FGF-1), sequence (P05230 whole entry): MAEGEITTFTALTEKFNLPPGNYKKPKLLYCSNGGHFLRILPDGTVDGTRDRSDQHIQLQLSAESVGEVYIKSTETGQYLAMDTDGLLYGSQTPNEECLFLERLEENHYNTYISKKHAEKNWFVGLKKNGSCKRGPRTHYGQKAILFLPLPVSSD
T1 sequence (P01317 25-54 limits assumed): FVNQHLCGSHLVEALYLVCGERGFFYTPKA
T1 sequence (P01317 85-105 limits assumed): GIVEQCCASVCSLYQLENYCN

Regarding `O=C(O)CCCCC(=O)O` [adipate, adipic acid], the inhibition index is 1.2 (0.7) on Bovine insulin; 1.2 (0.5) in assay [1] (compound 10,000X); 19.6 (17.1) in assay [1] (compound 50,000X); 0.9 (0.1) in assay [2] (compound 100X); 3.9 (0.7) in assay [2] (compound 2,000X); 3.0 (0.7) in assay [3] (compound 1,000×). The inhibition index in assay [3] (compound 10,000×) was 5.0 (3.3).
As to `NCCC(=O)O` [beta-alanine], the inhibition index on Bovine insulin was 1.1 (0.1); in assay [1] (compound 10,000X) it was 0.6 (0.1); in assay [1] (compound 50,000X), 1.9 (0.8); in assay [2] (compound 100X), 0.4 (0.1); in assay [2] (compound 2,000X), 0.8 (0.1); in assay [3] (compound 1,000×), 1.1 (0.2). Also, in assay [3] (compound 10,000×), the inhibition index is 1.5 (0.5).
`NCCN` [ethylenediamine]: the inhibition index on Bovine insulin was 0.9 (0.3); in assay [1] (compound 10,000X), 1.8 (0.5); in assay [1] (compound 50,000X) it was 18.5; in assay [2] (compound 100X), 0.7 (0.0); in assay [2] (compound 2,000X), 1.3 (0.1); in assay [3] (compound 1,000×), 2.2 (0.7). Also, the inhibition index in assay [3] (compound 10,000×) is 3.3 (1.3).
Regarding `O=C(O)CCCC(=O)O` [glutarate, glutaric acid], the inhibition index on Bovine insulin was 1.0 (0.2); in assay [1] (compound 10,000X) it was 1.4 (0.5); in assay [1] (compound 50,000X) it was 6.5 (0.3); in assay [2] (compound 100X), 0.9 (0.1); in assay [2] (compound 2,000X), 3.1 (0.7); in assay [3] (compound 1,000×), 3.0 (0.9). Also, the inhibition index in assay [3] (compound 10,000×) is 10.8 (8.4).
`NCC(=O)O` [glycine]: the inhibition index on Bovine insulin was 1.0 (0.3); in assay [1] (compound 10,000X), 0.8 (0.2); in assay [2] (compound 100X) it was 0.4 (0.1); in assay [2] (compound 2,000X) it was 1.2 (0.2); in assay [3] (compound 1,000×) it was 1.3 (0.3); in assay [3] (compound 10,000×) it was 3.0 (1.7).
Consider `O=C([O-])CC(=O)[O-].[Na+].[Na+]` [malonate, sodium malonate], for which the inhibition index is listed as 1.2 (0.5) at Bovine insulin; 2.4 (0.5) in assay [1] (compound 10,000X); 9 in assay [1] (compound 50,000X); 0.9 (0.1) in assay [2] (compound 100X); 4.9 (0.5) in assay [2] (compound 2,000X); 2.2 (0.4) in assay [3] (compound 1,000×). Also, the inhibition index in assay [3] (compound 10,000×) is 36.6 (29.0).
Consider `O=C(O)C(=O)O` [oxalate, oxalic acid], for which the inhibition index at Bovine insulin is given as 0.9 (0.6)^3; in assay [1] (compound 10,000X), 1.9 (0.5); in assay [1] (compound 50,000X), 6.2 (3.8); in assay [2] (compound 100X), 0.8 (0.1); in assay [2] (compound 2,000X), 1.5 (0.3); in assay [3] (compound 1,000×), 5.2 (1.5). Moreover, the inhibition index in assay [3] (compound 10,000×) is reported as 605.5 (89.1). In addition, the “inhibition of FGF-1 aggregation, in words” value in assay [3] (text and FIG. 2 (1,000X to 50,000X)) is listed as “effective inhibitors”.
With `O=C(O)CCCCCC(=O)O` [pimelate, pimelic acid], the inhibition index on Bovine insulin is given as 1.4 (0.6); in assay [1] (compound 10,000X), 1.4 (0.4); in assay [1] (compound 50,000X), 6.7 (0.1); in assay [2] (compound 100X), 0.8 (0.1); in assay [2] (compound 2,000X), 1.5 (0.4); in assay [3] (compound 1,000×) it was 3.1 (1.0). Besides, the inhibition index in assay [3] (compound 10,000×) is 12.1 (8.8).
As for `O=C(O)CCCCCCC(=O)O` [suberate, suberic acid], the inhibition index at Bovine insulin is on record as 1.6 (0.3); in assay [1] (compound 10,000X), 1.1 (0.2); in assay [1] (compound 50,000X) it was 14.1 (2.1); in assay [2] (compound 100X), 0.7 (0.0); in assay [2] (compound 2,000X), 1.7 (0.3); in assay [3] (compound 1,000×), 2.3 (0.5). Further, the inhibition index in assay [3] (compound 10,000×) is 7.1 (5.4).
In the case of `O=C(O)CCC(=O)O` [succinate, succinic acid], the inhibition index is recorded as 1.0 (0.3) at Bovine insulin; 2.1 (0.5) in assay [1] (compound 10,000X); 9.6 in assay [1] (compound 50,000X); 0.9 (0.1) in assay [2] (compound 100X); 2.1 (0.3) in assay [2] (compound 2,000X); 2.1 (0.4) in assay [3] (compound 1,000×). Also, the inhibition index in assay [3] (compound 10,000×) is reported as 9.2 (1.9).
Regarding `NCC(=O)NCC(=O)NCC(=O)O` [triglycine] (H-Gly-Gly-Gly-OH), the inhibition index at Bovine insulin is recorded as 1.4 (0.1); in assay [1] (compound 1,000X), 1.0 (0.2); in assay [1] (compound 10,000X), 0.7 (0.2); in assay [1] (compound 50,000X), 1.0; in assay [2] (compound 100X), 0.7 (0.0); in assay [2] (compound 2,000X), 2.5 (0.3). Further, the results for the inhibition index in assay [3] (compound 1,000×) and in assay [3] (compound 10,000×) were 2.2 (1.1) and 3.1 (0.9), respectively. For the same molecule, the “inhibition of citrate synthase aggregation, in words” value in assay [1] is reported as “Potent inhibitors”.
Consider Glu-Glu, for which the inhibition index on Bovine insulin was 1.0 (0.1); in assay [1] (compound 1,000X) it was 0.8 (0.1); in assay [1] (compound 10,000X), 1.5 (0.1); in assay [1] (compound 50,000X), 1430.3; in assay [2] (compound 100X), 0.6 (0.1); in assay [3] (compound 1,000×) it was 1.3 (0.2). For the same molecule, the inhibition index in assay [3] (compound 10,000×) is recorded as 7.1 (2.7). Also, the “inhibition of citrate synthase aggregation, in words” value in assay [1] is recorded as “Potent inhibitors”.
For the molecule Lys-Lys, the inhibition index on Bovine insulin was 1.1 (0.1); in assay [1] (compound 1,000X), 0.9 (0.1); in assay [1] (compound 10,000X), 1.6 (0.3); in assay [1] (compound 50,000X), 86.8; in assay [2] (compound 100X) it was 0.9 (0.1); in assay [3] (compound 1,000×), 1.1 (0.1). Moreover, in assay [3] (compound 10,000×), the inhibition index was 3.1 (0.8).
diglycine: the inhibition index is listed as 1.0 (0.2) on Bovine insulin; 0.8 (0.1) in assay [1] (compound 1,000X); 0.9 (0.3) in assay [1] (compound 10,000X); 1.5 (0.2) in assay [1] (compound 50,000X); 1.9 (0.3) in assay [2] (compound 100X); 1.0 (0.1) in assay [3] (compound 1,000×). Besides, in assay [3] (compound 10,000×), the inhibition index is 1.2 (0.4). Moreover, the “inhibition of citrate synthase aggregation, in words” value in assay [1] is “Potent inhibitors”.
tetraglycine: the inhibition index on Bovine insulin is recorded as 1.5 (0.3); in assay [1] (compound 1,000X), 1.5 (0.1); in assay [2] (compound 100X), 0.8 (0.1); in assay [2] (compound 2,000X) it was 3.4 (0.6); in assay [3] (compound 1,000×) it was 3.8 (0.8).
